The results in this text go back to patent US20060040827A1, “Environmentally safe herbicide, fungicide, bactericide and adjuvant composition” (priority 2004, published 2006).

For this test, the system named is grass and broad leaf. Description: Grass and broad leaf kill, cocktails compared against glyphosate (5%). Type of test: in vivo. From the text:
This cocktail can be mixed with water prior to use at 1:5 parts of water to 1:200 parts of water. The higher the concentration of the cocktail the faster the kill of the weeds. Cocktail I was compared against glyphosate (5%).
Compared against Glyphosate at 5%:
Same as Cocktail I but add concentrated glyphosate to yield 1% glyphosate in mix.

Turning to `O=C(O)CNCP(=O)(O)O` [Glyphosate, N-(phosphonomethyl) glycine], the “Grass and broad leaf kill, 24 hours” value (24 hours, Cocktail I vs glyphosate at 5%) worked out at 10%. Also, the “Broad leaf and grass kill, 24 hours” value runs as follows: (24 hours, Cocktail II vs glyphosate at 5%) 10%; (24 hours, Cocktail III (1% glyphosate in mix) vs glyphosate at 5%) 10%. For the same molecule, the “Broad leaf and grass kill, 2 days” value reads like this: (Cocktail II vs glyphosate at 5%) 20%; (Cocktail III (1% glyphosate in mix) vs glyphosate at 5%) 20%. The “Grass and broad leaf kill, 7 days” value (7 days, Cocktail I vs glyphosate at 5%) is given as 100%. The “Broad leaf and grass kill, 7 days” value runs as follows: (7 days, Cocktail II vs glyphosate at 5%) 100%; (7 days, Cocktail III (1% glyphosate in mix) vs glyphosate at 5%) 100%.
